In ChEMBL document CHEMBL3046304, “Discovery of a series of novel compounds with moderate anti-avian H5N1 influenza virus activity in chick embryo” (Med Chem Res, 2013):

Columns and labels:
Influenza A virus [1] = test: Ratio of compound MED to oseltamivir MED for influenza A virus (A/duck/China/QJ/01(H5N1)) infected in chick embryo measured after 5 days by hemagglutination assay; format: functional
Influenza A virus [2] = test: Ratio of compound MED to oseltamivir carboxylate MED for influenza A virus (A/duck/China/QJ/01(H5N1)) infected in chick embryo measured after 5 days by hemagglutination assay; format: functional
Neuraminidase [3] = target: T1, Neuraminidase (Influenza A virus, UniProt B4URF0); design: species or system (A/duck/China/QJ/01(H5N1))
T1 sequence (B4URF0 whole entry): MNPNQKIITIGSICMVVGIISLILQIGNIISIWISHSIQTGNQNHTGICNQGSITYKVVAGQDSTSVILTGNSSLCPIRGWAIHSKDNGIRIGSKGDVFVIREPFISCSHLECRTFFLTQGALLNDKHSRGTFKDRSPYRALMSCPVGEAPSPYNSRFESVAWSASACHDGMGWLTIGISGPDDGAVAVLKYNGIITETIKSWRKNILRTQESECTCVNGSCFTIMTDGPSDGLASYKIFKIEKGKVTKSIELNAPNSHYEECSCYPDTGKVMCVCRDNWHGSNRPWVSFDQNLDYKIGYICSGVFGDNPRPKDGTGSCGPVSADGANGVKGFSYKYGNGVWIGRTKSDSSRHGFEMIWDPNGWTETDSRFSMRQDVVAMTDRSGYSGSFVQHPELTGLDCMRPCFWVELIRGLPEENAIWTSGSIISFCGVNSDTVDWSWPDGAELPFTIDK

Neuraminidase [4] = target: T1, Neuraminidase; design: species or system (A/chicken/Shandong/LY/2008(H9N2))
Influenza A virus [5] = format: functional
[6] = Inhibition of neuraminidase

Structure (SMILES)	Ratio (Influenza A virus [1])	Ratio (Influenza A virus [2])	IC50 (Neuraminidase [3]) [µM]	IC50 (Neuraminidase [4]) [µM]	MED (Influenza A virus [5]) [µM]	IC50 [6] [µM]
Cl.NCC(=O)Nc1cc(NC(=O)/C=C/c2ccco2)ccc1O	4	4	139	175	5	–
CC(C)C[C@H](N)C(=O)Nc1cc(NC(=O)/C=C/c2ccco2)ccc1O.Cl	4	4	148	179	5	–
NC(Cn1ccc(=O)c(O)c1)C(=O)N[C@@H](Cc1ccccc1)C(=O)O (stereo partly specified)	–	–	–	–	–	1.8
CC[C@H](C)[C@H](N)C(=O)Nc1cc(NC(=O)/C=C/c2ccco2)ccc1O.Cl	4	4	103	119	2.5	–
C[C@@H](O)[C@H](N)C(=O)Nc1cc(NC(=O)/C=C/c2ccco2)ccc1O.Cl	4	4	187	200	5	–
Cl.N[C@@H](CO)C(=O)Nc1cc(NC(=O)/C=C/c2ccco2)ccc1O	4	4	143	158	5	–
O=c1cc(-c2ccc(O)cc2)oc2cc(O)cc(O)c12 [APIGENIN]	4	4	–	–	–	–
Cl.N[C@@H](Cc1c[nH]c2ccccc12)C(=O)Nc1cc(NC(=O)/C=C/c2ccco2)ccc1O	4	4	189	194	2.5	–
CCC(CC)O[C@@H]1C=C(C(=O)O)C[C@H](N)[C@H]1NC(C)=O.Cl [OSELTAMIVIR CARBOXYLATE HYDROCHLORIDE]	–	–	–	–	0.625	–
Cl.N=C(NCCC[C@H](N)C(=O)Nc1cc(NC(=O)/C=C/c2ccco2)ccc1O)N[N+](=O)[O-]	4	4	192	193	5	–
C[C@H](N)C(=O)Nc1cc(NC(=O)/C=C/c2ccco2)ccc1O.Cl	4	4	110	91.7	5	–
Cl.O=C(/C=C/c1ccco1)Nc1ccc(O)c(NC(=O)[C@@H]2CCCN2)c1	4	4	57.8	85.3	5	–
Cl.NCCCC(=O)Nc1cc(NC(=O)/C=C/c2ccco2)ccc1O	4	4	132	167	5	–
Cl.NCCC(=O)Nc1cc(NC(=O)/C=C/c2ccco2)ccc1O	4	4	108	118	5	–
CCOC(=O)C1=C[C@@H](OC(CC)CC)[C@H](NC(C)=O)[C@@H](N)C1.O=P(O)(O)O [OSELTAMIVIR PHOSPHATE]	–	–	–	–	0.625	–
CC(C)[C@H](N)C(=O)Nc1cc(NC(=O)/C=C/c2ccco2)ccc1O.Cl	4	4	175	165	2.5	–
C[C@H](N)C(=O)Nc1cc(NC(=O)/C=C/c2ccc(O)c(O)c2)ccc1O.Cl	4	4	113	105	5	–
CSCC[C@H](N)C(=O)Nc1cc(NC(=O)/C=C/c2ccco2)ccc1O.Cl	4	4	121	144	5	–
CC(C)[C@H](N)C(=O)Nc1cc(NC(=O)/C=C/c2ccc(O)c(O)c2)ccc1O.Cl	4	4	114	138	2.5	–
Cl.O=C(/C=C/c1ccco1)Nc1ccc(O)c(NC(=O)[C@@H]2C[C@@H](O)CN2)c1	4	4	109	111	5	–
Cl.NCCCC[C@H](N)C(=O)Nc1cc(NC(=O)/C=C/c2ccco2)ccc1O	4	4	225	215	5	–
Cl.N[C@@H](Cc1ccccc1)C(=O)Nc1cc(NC(=O)/C=C/c2ccco2)ccc1O	4	4	130	143	5	–
CC(C)C[C@H](N)C(=O)Nc1cc(NC(=O)/C=C/c2ccc(O)c(O)c2)ccc1O.Cl	4	4	135	154	2.5	–
CC[C@H](C)[C@H](N)C(=O)Nc1cc(NC(=O)/C=C/c2ccc(O)c(O)c2)ccc1O.Cl	4	4	0.012	0.0017	2.5	–
NC(Cn1ccc(=O)c(O)c1)C(=O)N[C@@H](Cc1ccc(O)cc1)C(=O)O (stereo partly specified)	–	–	–	–	–	2.8
